Results taken from patent EP4755888A1 (ILAb Co., Ltd., priority 2023, dated 2025).

Each compound was assayed against PD-1/PD-L1 (Homo sapiens, UniProt Q9NZQ7) (assay: TR-FRET PD-1/PD-L1 binding inhibition at the molecular level (free proteins)). Details: Tag1-PD-L1 and Tag2-PD-1 proteins, twelve concentrations from 200 nM, 2 hours at room temperature, read-out: FRET assay (IC50).
Method in brief: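 HTRF read-out at 665/620 nm after 2 h at room temperature. Detection used anti-Tag1 Eu cryptate plus anti-Tag2 XL665 antibodies. Tagged PD-L1 and PD-1 proteins were pre-mixed with compound across twelve […] 1:2 dilutions starting at 200 nM.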

Sequence of PD-1/PD-L1 (Q9NZQ7 19-238 limits assumed): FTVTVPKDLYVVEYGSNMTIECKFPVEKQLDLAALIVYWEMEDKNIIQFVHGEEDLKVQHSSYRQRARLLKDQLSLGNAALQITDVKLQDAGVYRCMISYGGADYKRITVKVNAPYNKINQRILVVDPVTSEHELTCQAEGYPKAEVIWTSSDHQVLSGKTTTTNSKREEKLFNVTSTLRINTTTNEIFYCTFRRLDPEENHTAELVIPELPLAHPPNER

SMILES | IC50 [µM]
COc1cc(C(=O)Nc2cccc(-c3cccc(NC(=O)c4cc5n(n4)CCCC5NCC(=O)O)c3Cl)c2Cl)cc(F)c1CNCCO (centres unmarked) [Compound 190, 2-((2-((2,2'-dichloro-3'-(3-fluoro-4-(((2-hydroxyethyl)amino)methyl)-5-methoxybenzamido)-[1,1'-biphenyl]-3-yl)carbamoyl)-4,5,6,7-tetrahydropyrazolo[1,5-a]pyridin-4-yl)amino)acetic acid] | < 0.01
COc1cc(C(=O)Nc2cccc(-c3cccc(NC(=O)c4cc5n(n4)CCCC5NCC(=O)O)c3Cl)c2Cl)cc(F)c1CNCC(=O)O (centres unmarked) [Compound 191, 2-((4-((3'-(4-((carboxymethyl)amino)-4,5,6,7-tetrahydropyrazolo[1,5-a]pyridine-2-carboxamido)-2,2'-dichloro-[1,1'-biphenyl]-3-yl)carbamoyl)-2-fluoro-6-methoxybenzyl)amino)acetic acid] | < 0.01
COc1cc(C(=O)Nc2cccc(-c3cccc(NC(=O)c4cc5n(n4)CCCC5NCC(=O)O)c3Cl)c2Cl)cc(F)c1CN1CC[C@@H](O)C1 (stereo partly drawn) [Compound 192, 2-((2-((2,2'-dichloro-3'-(3-fluoro-4-(((R)-3-hydroxypyrrolidin-1-yl)methyl)-5-methoxybenzamido)-[1,1'-biphenyl]-3-yl)carbamoyl)-4,5,6,7-tetrahydropyrazolo[1,5-a]pyridin-4-yl)amino)acetic acid] | < 0.01
COc1cc(C(=O)Nc2cccc(-c3cccc(NC(=O)c4cc5n(n4)CCCC5NCC(=O)O)c3Cl)c2Cl)cc(F)c1CN1CC[C@@H](C(=O)O)C1 (stereo partly drawn) [Compound 193, (3R)-1-(4-((3'-(4-((carboxymethyl)amino)-4,5,6,7-tetrahydropyrazolo[1,5-a]pyridine-2-carboxamido)-2,2'-dichloro-[1,1'-biphenyl]-3-yl)carbamoyl)-2-fluoro-6-methoxybenzyl)pyrrolidine-3-carboxylic acid] | < 0.01
COc1cc(C(=O)Nc2cccc(-c3cccc(NC(=O)c4cc5n(n4)CCCC5N4CC[C@@H](C(=O)O)C4)c3Cl)c2Cl)cc(F)c1CNCCO (stereo partly drawn) [Compound 194, (3R)-1-(2-((2,2'-dichloro-3'-(3-fluoro-4-(((2-hydroxyethyl)amino)methyl)-5-methoxybenzamido)-[1,1'-biphenyl]-3-yl)carbamoyl)-4,5,6,7-tetrahydropyrazolo[1,5-a]pyridin-4-yl)pyrrolidine-3-carboxylic acid] | < 0.01
COc1cc(C(=O)Nc2cccc(-c3cccc(NC(=O)c4cc5n(n4)CCCC5N4CC[C@@H](C(=O)O)C4)c3Cl)c2Cl)cc(F)c1CNCC(=O)O (stereo partly drawn) [Compound 195, (3R)-1-(2-((3'-(4-(((carboxymethyl)amino)methyl)-3-fluoro-5-methoxybenzamido)-2,2'-dichloro-[1,1'-biphenyl]-3-yl)carbamoyl)-4,5,6,7-tetrahydropyrazolo[1,5-a]pyridin-4-yl)pyrrolidine-3-carboxylic acid] | < 0.01
COc1cc(C(=O)Nc2cccc(-c3cccc(NC(=O)c4cc5n(n4)CCCC5N4CC[C@@H](C(=O)O)C4)c3Cl)c2Cl)cc(F)c1CN1CC[C@@H](O)C1 (stereo partly drawn) [Compound 196, (3R)-1-(2-((2,2'-dichloro-3'-(3-fluoro-4-(((R)-3-hydroxypyrrolidin-1-yl)methyl)-5-methoxybenzamido)-[1,1'-biphenyl]-3-yl)carbamoyl)-4,5,6,7-tetrahydropyrazolo[1,5-a]pyridin-4-yl)pyrrolidine-3-carboxylic acid] | < 0.01
COc1cc(C(=O)Nc2cccc(-c3cccc(NC(=O)c4cc5n(n4)CCCC5N4CC[C@@H](C(=O)O)C4)c3Cl)c2Cl)cc(F)c1CN1CC[C@@H](C(=O)O)C1 (stereo partly drawn) [Compound 197, (3R)-1-(4-((3'-(4-((R)-3-carboxypyrrolidin-1-yl)-4,5,6,7-tetrahydropyrazolo[1,5-a]pyridine-2-carboxamido)-2,2'-dichloro-[1,1'-biphenyl]-3-yl)carbamoyl)-2-fluoro-6-methoxybenzyl)pyrrolidine-3-carboxylic acid] | 0.01 to 0.1
O=C(O)CNC1CCCn2nc(C(=O)Nc3cccc(-c4cccc(NC(=O)c5ccc(CNCCO)c(F)n5)c4Cl)c3Cl)cc21 (centres unmarked) [Compound 198, 2-((2-((2,2'-dichloro-3'-(6-fluoro-5-(((2-hydroxyethyl)amino)methyl)picolinamido)-[1,1'-biphenyl]-3-yl)carbamoyl)-4,5,6,7-tetrahydropyrazolo[1,5-a]pyridin-4-yl)amino)acetic acid] | < 0.01
O=C(Nc1cccc(-c2cccc(NC(=O)c3cc4n(n3)CCCC4N3CC[C@@H](C(=O)O)C3)c2Cl)c1Cl)c1ccc(CNCCO)c(F)n1 (stereo partly drawn) [Compound 199, (3R)-1-(2-((2,2'-dichloro-3'-(6-fluoro-5-(((2-hydroxyethyl)amino)methyl)picolinamido)-[1,1'-biphenyl]-3-yl)carbamoyl)-4,5,6,7-tetrahydropyrazolo[1,5-a]pyridin-4-yl)pyrrolidine-3-carboxylic acid] | < 0.01
O=C(O)CNC1CCCn2nc(C(=O)Nc3cccc(-c4cccc(NC(=O)c5ncc(CNCCO)cc5F)c4Cl)c3Cl)cc21 (centres unmarked) [Compound 200, 2-((2-((2,2'-dichloro-3'-(3-fluoro-5-(((2-hydroxyethyl)amino)methyl)picolinamido)-[1,1'-biphenyl]-3-yl)carbamoyl)-4,5,6,7-tetrahydropyrazolo[1,5-a]pyridin-4-yl)amino)acetic acid] | < 0.01
O=C(Nc1cccc(-c2cccc(NC(=O)c3ncc(CNCCO)cc3F)c2Cl)c1Cl)c1cc2n(n1)CCCC2N1CC[C@@H](C(=O)O)C1 (stereo partly drawn) [Compound 201, (3R)-1-(2-((2,2'-dichloro-3'-(3-fluoro-5-(((2-hydroxyethyl)amino)methyl)picolinamido)-[1,1'-biphenyl]-3-yl)carbamoyl)-4,5,6,7-tetrahydropyrazolo[1,5-a]pyridin-4-yl)pyrrolidine-3-carboxylic acid] | < 0.01
O=C(O)CNC1CCCn2nc(C(=O)Nc3cccc(-c4cccc(NC(=O)c5ccc(CN6CC[C@@H](O)C6)c(F)n5)c4Cl)c3Cl)cc21 (stereo partly drawn) [Compound 202, 2-((2-((2,2'-dichloro-3'-(6-fluoro-5-(((R)-3-hydroxypyrrolidin-1-yl)methyl)picolinamido)-[1,1'-biphenyl]-3-yl)carbamoyl)-4,5,6,7-tetrahydropyrazolo[1,5-a]pyridin-4-yl)amino)acetic acid] | < 0.01
O=C(Nc1cccc(-c2cccc(NC(=O)c3cc4n(n3)CCCC4N3CC[C@@H](C(=O)O)C3)c2Cl)c1Cl)c1ccc(CN2CC[C@@H](O)C2)c(F)n1 (stereo partly drawn) [Compound 203, (3R)-1-(2-((2,2'-dichloro-3'-(6-fluoro-5-(((R)-3-hydroxypyrrolidin-1-yl)methyl)picolinamido)-[1,1'-biphenyl]-3-yl)carbamoyl)-4,5,6,7-tetrahydropyrazolo[1,5-a]pyridin-4-yl)pyrrolidine-3-carboxylic acid] | < 0.01
O=C(O)CNC1CCCn2nc(C(=O)Nc3cccc(-c4cccc(NC(=O)c5ncc(CN6CC[C@@H](O)C6)cc5F)c4Cl)c3Cl)cc21 (stereo partly drawn) [Compound 204, 2-((2-((2,2'-dichloro-3'-(3-fluoro-5-(((R)-3-hydroxypyrrolidin-1-yl)methyl)picolinamido)-[1,1'-biphenyl]-3-yl)carbamoyl)-4,5,6,7-tetrahydropyrazolo[1,5-a]pyridin-4-yl)amino)acetic acid] | < 0.01
O=C(Nc1cccc(-c2cccc(NC(=O)c3ncc(CN4CC[C@@H](O)C4)cc3F)c2Cl)c1Cl)c1cc2n(n1)CCCC2N1CC[C@@H](C(=O)O)C1 (stereo partly drawn) [Compound 205, (3R)-1-(2-((2,2'-dichloro-3'-(3-fluoro-5-(((R)-3-hydroxypyrrolidin-1-yl)methyl)picolinamido)-[1,1'-biphenyl]-3-yl)carbamoyl)-4,5,6,7-tetrahydropyrazolo[1,5-a]pyridin-4-yl)pyrrolidine-3-carboxylic acid] | < 0.01
O=C(Nc1cccc(-c2cccc(Nc3nccc4cc(CN5CC[C@@H](O)C5)cnc34)c2Cl)c1Cl)c1cc2n(n1)CCCC2N1CC[C@@H](C(=O)O)C1 (stereo partly drawn) [Compound 228, (3R)-1-(2-((2,2'-dichloro-3'-((3-(((R)-3-hydroxypyrrolidin-1-yl)methyl)-1,7-naphthyridin-8-yl)amino)-[1,1'-biphenyl]-3-yl)carbamoyl)-4,5,6,7-tetrahydropyrazolo[1,5-a]pyridin-4-yl)pyrrolidine-3-carboxylic acid] | 0.01 to 0.1
O=C(Nc1cccc(-c2cccc(Nc3nccc4cc(CN5CC[C@@H](O)C5)cnc34)c2Cl)c1Cl)c1cc2n(n1)CCCC2NC(CO)CO (stereo partly drawn) [Compound 230, N-(2,2'-dichloro-3'-((3-(((R)-3-hydroxypyrrolidin-1-yl)methyl)-1,7-naphthyridin-8-yl)amino)-[1,1'-biphenyl]-3-yl)-4-((1,3-dihydroxypropan-2-yl)amino)-4,5,6,7-tetrahydropyrazolo[1,5-a]pyridine-2-carboxamide] | 0.01 to 0.1
O=C(Nc1cccc(-c2cccc(Nc3nccc4cc(CN5CC[C@@H](O)C5)cnc34)c2Cl)c1Cl)c1cc2n(n1)CCCC2NC1CCOCC1 (stereo partly drawn) [Compound 231, N-(2,2'-dichloro-3'-((3-(((R)-3-hydroxypyrrolidin-1-yl)methyl)-1,7-naphthyridin-8-yl)amino)-[1,1'-biphenyl]-3-yl)-4-((tetrahydro-2H-pyran-4-yl)amino)-4,5,6,7-tetrahydropyrazolo[1,5-a]pyridine-2-carboxamide] | 0.01 to 0.1
O=C(Nc1cccc(-c2cccc(Nc3nccc4cc(CN5CC[C@@H](O)C5)cnc34)c2Cl)c1Cl)c1cc2n(n1)CCCC2N1CC(O)C1 (stereo partly drawn) [Compound 232, N-(2,2'-dichloro-3'-((3-(((R)-3-hydroxypyrrolidin-1-yl)methyl)-1,7-naphthyridin-8-yl)amino)-[1,1'-biphenyl]-3-yl)-4-(3-hydroxyazetidin-1-yl)-4,5,6,7-tetrahydropyrazolo[1,5-a]pyridine-2-carboxamide] | 0.01 to 0.1
